From ChEMBL document CHEMBL4261482, “Development of small molecular compounds targeting cancer stem cells” (Medchemcomm, 2017)

Assays:
[1] = system: DU-4475; assay: Antiproliferative activity against human DU4475 cells; type: functional, cell-based
[2] = system: T47D; assay: Antiproliferative activity against human T47D cells; type: functional, cell-based
[3] = system: CWR22R; assay: Antiproliferative activity against human 22Rv1 cells; type: functional, cell-based
[4] = system: A549; assay: Antiproliferative activity against human A549 cells; type: functional, cell-based
[5] = system: A549; assay: Antitumor activity against human A549 cells xenografted in BALB/cSLC-nu/nu mouse assessed as tumor growth inhibition at 10 mg/kg, iv qd administered for 14 days measured on day 15 relative to control; type: functional; details: read-out: TGI
[6] = system: A549; assay: Antitumor activity against human A549 cells xenografted in BALB/cSLC-nu/nu mouse assessed as tumor growth inhibition at 10 mg/kg administered through oral gavage as qd for 14 days measured on day 15 relative to control; type: functional; details: read-out: TGI
[7] = system: MV4-11; assay: Cytotoxicity against human MV4-11 cells assessed as decrease in cell viability after 48 hrs by MTT assay; type: functional, cell-based; details: MV4-11, 48 h
[8] = system: THP-1; assay: Cytotoxicity against human THP1 cells assessed as decrease in cell viability after 48 hrs by MTT assay; type: functional, cell-based; details: THP-1, 48 h
[9] = system: KG-1; assay: Cytotoxicity against human KG1 cells assessed as decrease in cell viability after 48 hrs by MTT assay; type: functional, cell-based; details: KG-1, 48 h
[10] = Cytotoxicity against human KOCL48 cells assessed as decrease in cell viability after 48 hrs by MTT assay; type: functional, cell-based
[11] = system: MOLM-13; assay: Cytotoxicity against human MOLM13 cells assessed as decrease in cell viability after 48 hrs by MTT assay; type: functional, cell-based; details: MOLM-13, 48 h
[12] = system: KG-1a; assay: Cytotoxicity against human KG1a cells assessed as decrease in cell viability after 48 hrs by MTT assay; type: functional, cell-based
[13] = system: K562; assay: Cytotoxicity against human K562 cells assessed as decrease in cell viability after 48 hrs by MTT assay; type: functional, cell-based; details: K562, 48 h
[14] = system: ML-2; assay: Cytotoxicity against human ML2 cells assessed as decrease in cell viability after 48 hrs by MTT assay; type: functional, cell-based; details: ML-2, 48 h
[15] = system: U-937; assay: Cytotoxicity against human U937 cells assessed as decrease in cell viability after 48 hrs by MTT assay; type: functional, cell-based; details: U-937, 48 h
[16] = system: BGC-823; assay: Antiproliferative activity against human BGC823 cells after 24 to 96 hrs by CCK8 assay; type: functional, cell-based
[17] = system: SGC-7901; assay: Antiproliferative activity against human SGC7901 cells after 24 to 96 hrs by CCK8 assay; type: functional, cell-based
[18] = Antitumor activity against human gastric cancer cells xenografted in NOD/SCID mouse assessed as tumor growth inhibition at 15 mg/kg, iv administered once in every 2 days for 2 weeks measured on day 15 relative to control; type: functional; details: read-out: TGI
[19] = system: NCI-H69; assay: Cytotoxicity against human H69 cells assessed as decrease in cell viability after 72 hrs by MTT assay; type: functional, cell-based; details: NCI-H69, 72 h
[20] = system: NCI-H82; assay: Cytotoxicity against human H82 cells assessed as decrease in cell viability after 72 hrs by MTT assay; type: functional, cell-based; details: NCI-H82, 72 h
[21] = system: NCI-H524; assay: Cytotoxicity against human NCI-H524 cells assessed as decrease in cell viability after 72 hrs by MTT assay; type: functional, cell-based; details: NCI-H524, 72 h
[22] = system: DMS-114; assay: Cytotoxicity against human DMS114 cells assessed as decrease in cell viability after 72 hrs by MTT assay; type: functional, cell-based; details: DMS-114, 72 h
[23] = system: SBC-5; assay: Cytotoxicity against human SBC5 cells assessed as decrease in cell viability after 72 hrs by MTT assay; type: functional, cell-based; details: SBC-5, 72 h
[24] = system: SBC-3; assay: Cytotoxicity against human SBC3 cells assessed as decrease in cell viability after 72 hrs by MTT assay; type: functional, cell-based; details: SBC-3, 72 h
[25] = Cytotoxicity against human H69AR cells assessed as decrease in cell viability after 72 hrs by MTT assay; type: functional, cell-based
[26] = system: NCI-H2171; assay: Cytotoxicity against human NCI-H2171 cells assessed as decrease in cell viability after 72 hrs by MTT assay; type: functional, cell-based; details: NCI-H2171, 72 h
[27] = system: NCI-H446; assay: Cytotoxicity against human NCI-H446 cells assessed as decrease in cell viability after 72 hrs by MTT assay; type: functional, cell-based; details: NCI-H446, 72 h
[28] = system: NCI-H146; assay: Cytotoxicity against human NCI-H146 cells assessed as decrease in cell viability after 72 hrs by MTT assay; type: functional, cell-based; details: NCI-H146, 72 h
[29] = system: DMS-273; assay: Cytotoxicity against human DMS273 cells assessed as decrease in cell viability after 72 hrs by MTT assay; type: functional, cell-based; details: DMS-273, 72 h
[30] = system: CAKI-1; assay: Cytotoxicity against human Caki1 cells assessed as decrease in cell viability after 72 hrs by MTT assay; type: functional, cell-based; details: CAKI-1, 72 h
[31] = system: 769-P; assay: Cytotoxicity against human 769-P cells assessed as decrease in cell viability after 72 hrs by MTT assay; type: functional, cell-based
[32] = system: 786-0; assay: Cytotoxicity against human 786-O cells assessed as decrease in cell viability after 72 hrs by MTT assay; type: functional, cell-based; details: 786-0, 72 h
[33] = Cytotoxicity against human VMRC-RCW cells assessed as decrease in cell viability after 72 hrs by MTT assay; type: functional, cell-based
[34] = system: CAKI-2; assay: Cytotoxicity against human Caki2 cells assessed as decrease in cell viability after 72 hrs by MTT assay; type: functional, cell-based; details: CAKI-2, 72 h

`CC(=O)c1cnc2ccc(-c3cc(Cl)c(O)c(Cl)c3)nc2c1N[C@H]1CC[C@H](CN(C)C)CC1` showed an IC50 [1] of 2.3 nM, an IC50 [2] of 4.3 nM and an IC50 [3] of 6 nM. It also gave an IC50 [4] of 6.7 nM, an inhibition in vivo at 10 mg/kg [5] of 108% and an inhibition in vivo at 10 mg/kg [6] of 124%. For the same compound, the IC50 [7] was 7.9 nM, the IC50 [8] was 15.6 nM and the IC50 [9] was 16.9 nM. For the same compound, the IC50 [10] was 16.9 nM, the IC50 [11] was 17.5 nM and the IC50 [12] was 26.4 nM. The IC50 [13] was 33 nM, the IC50 [14] was 33.8 nM and the IC50 [15] was 69.8 nM. For the same compound, the IC50 [16] was 25 nM, the IC50 [17] was 25 nM and the inhibition in vivo at 15 mg/kg [18] was 106 to 112%. For the same compound, the IC50 [19] was 0.8 nM, the IC50 [20] was 1.7 nM and the IC50 [21] was 1.9 nM. For the same compound, the IC50 [22] was 2.1 nM, the IC50 [23] was 2.8 nM and the IC50 [24] was 4.3 nM. It also gave an IC50 [25] of 4.4 nM, an IC50 [26] of 4.7 nM and an IC50 [27] of 6.2 nM. For the same compound, the IC50 [28] was 7.9 nM, the IC50 [29] was 8.4 nM and the IC50 [30] was 12.4 nM. The IC50 [31] was 20.1 nM, the IC50 [32] was 23.9 nM and the IC50 [33] was 25.5 nM. For the same compound, the IC50 [34] was 38.7 nM.
